Test results from patent publication US12103925B2, “Crystal and amorphous form of tolebrutinib, preparation method therefor, and use thereof” (HANGZHOU SOLIPHARMA CO., LTD., priority 2021, dated 2024).
≈ marks a conversion by molar mass, not a printed value. Where “and” joins values, the source holds several entries; their conditions need not be identical. Equal entries are not always repeated. Entries after “also recorded” stand apart in the source; their conditions may differ.

What was measured:
Type in all cases: physicochemical
[1] = Stability study under long-term and accelerated conditions (XRPD and HPLC); conditions: for Purity after placing / sample after placing / chemical purity before and after storage: 10 months; for Purity after placing: HPLC; for sample after placing: XRPD; for time the solid form remains unchanged / stable: both long-term (25° C./60% RH/open) and accelerated (40° C./75% RH/open) conditions; for chemical purity before and after storage: long-term and accelerated conditions
Experimental: In this application, X-ray powder diffraction (XRPD) data were collected using a BrukerD8 Advance diffractometer; parameters are as follows: Cu radiation; wavelength: 1.54 Å; Current voltage: 40 KV, 40 mA; Scan range: 3˜40′2θ.
(§1) In this application, the HPLC parameters for chemical stability and solubility are as follows:
[…] Regular testing using XRPD and HPLC was performed.
(§2) […] Regular testing using XRPD and HPLC were performed.
as §2

[2] = Stability under light and oxidation conditions; conditions: for time the form remains stable under light: light (25° C./4500 lx/closed); for chemical purity before and after storage: light and oxidation conditions, 14 days; for time the form remains stable under oxidation: oxidation (in an atmosphere of carbamide peroxide)
[3] = Solubility study in pH 1.2 buffer solution and pH 1.2 SGF (HPLC); conditions: for Solubility, pH 1.2 SGF: pH 1.2 SGF (with pepsin)
Experimental: as §1
The amorphous form of tolebrutinib, Form 1 and Form 2 samples of the present application were studied using pH 1.2 buffer solution (preparation: 375.90 mg potassium chloride solid and 1709.47 mg concentrated hydrochloric acid (37%) were added to a 100 mL volumetric flask, 80 mL of pure water was added, adjusted the pH to 1.2 with hydrochloric acid or potassium hydroxide, q.s. to volume) and pH 1.2 SGF (preparation: In 765 μL of concentrated hydrochloric acid (37%) added about 80 mL of water, 1 g of pepsin, 200 mg chlorinated sodium, shook, diluted with water to 100 mL) to form a supersaturated solution, and the dissolved content of the sample in the saturated solution was determined by high performance liquid chromatography (HPLC) at a fixed time point.

[4] = Dynamic moisture adsorption analysis (DVS), hygroscopicity
Experimental: In this application, dynamic moisture adsorption analysis (DVS) data and isothermal adsorption analysis data were obtained using a TA Instruments Q5000 TGA; parameters are as follows: temperature: 25° C.; relative humidity range: 0% RH-80% RH; dm/dt=0.001%/min; equilibration time: gas: N2; sample pan: platinum pan.

[5] = Compressibility study (tablet compression, hardness, tensile strength); conditions: for tensile strength: calculated, T=2H/πDL*9.8; for diameters / thicknesses: circular tablets, 7.5 mm punch; for diameters / thicknesses / hardness: mean main pressure 1.8 KN; for hardness: radial breaking force, tablet hardness tester
Experimental: The tablet compression was conducted using a Tianxiang rotary tablet press. A circular punch with a diameter of 7.5 mm (07.5 mm) was selected, a filling depth of 17.9 mm and a mean main pressure of 1.8 KN was used to form circular tablets. The tablets' radial breaking force (hardness, H) was measured using a tablet hardness tester. The tablets' diameter (D) and thickness (L) were measured using a vernier caliper. The tensile strength (T) of the powder was calculated using the formula T=2H/πDL*9.8.

[6] = Stability of the solid form in tablets at 25° C./60% RH (XRPD); conditions: XRPD before and after storage
Experimental: (§3) Following the formulation in Table 6, API, lactose hydrate, polyvinylpyrrolidone, hydroxypropyl cellulose, microcrystalline cellulose and magnesium stearate were mixed and compressed to obtain a tablet core. Subsequently, the tablet cores are coated with a solution/suspension for film coating, resulting in the preparation of the tablets.
The prepared amorphous tablets, Form 1 tablets and Form 2 tablets were individually placed at 25° C./60% RH for 14 days. XRPD tests were performed before and after storage.

[7] = Solid form before and after the tableting process (XRPD); conditions: XRPD comparison
From the text: as §3

[8] = Polarized light microscope (PLM) particle size; conditions: PLM image
Experimental: In this application, the polarized light microscope (PLM) images were collected using a XPV˜990E polarized light microscope; a small amount of powder sample was placed on a glass slide, a small amount of mineral oil was added dropwise to disperse the sample, a cover glass was placed on the slide, and the sample was placed on the slide. Observing and taking pictures on the stage.

[9] = Competitive slurry experiments
[10] = listed as amorphous form of tolebrutinib
[11] = listed as amorphous tolebrutinib
[12] = pH 1.2 buffer and pH 1.2 SGF (medium simulating the physiological pH of the human stomach)
[13] = pH 1.2 buffer solution, 2 hours

| Structure (SMILES) | Purity after placing ([1]; 40° C./75% RH/open) | sample after placing ([1]; 40° C./75% RH/open) | Solubility, pH 1.2 SGF ([3]; 2 hours) [mg/mL] | tensile strength [5] [MPa] | diameters [5] [mm] | thicknesses [5] [mm] | hardness [5] [kg] | solid form before and after the tableting process [7] | Purity after placing ([1]; 25° C./60% RH/open) [%] | sample after placing ([1]; 25° C./60% RH/open) | time the solid form remains unchanged / stable [1] [months] | time the form remains stable under light [2] | chemical purity before and after storage [2] | time the form remains stable under oxidation [2] | solubility, approximate level [3, 12] | Solubility, pH 1.2 buffer solution [3, 13] [mg/mL] | particle size [8] [μm] | further results |
| --- | --- | --- | --- | --- | --- | --- | --- | --- | --- | --- | --- | --- | --- | --- | --- | --- | --- | --- |
| C=CC(=O)N1CCC[C@@H](n2c(=O)n(-c3ccc(Oc4ccccc4)cc3)c3c(N)nccc32)C1 [Amorphous, tolebrutinib] | 98.00% | Amorphous | 36.76 | 1.4 | 7.49 | 4.15 | 7.18 | remained unchanged | – | – | – | – | – | – | – | – | – | Purity after placing ([1]; 25° C./65% RH/open): 98.87%; sample after placing ([1]; 25° C./65% RH/open): Amorphous; Purity after placing ([1]; 40° C./75% RH/open, listed as amorphous form of tolebrutinib): 98.0%; time the solid form remains unchanged / stable [1, 10]: 10 months; time the solid form remains unchanged / stable [1, 11]: 10 months; chemical purity before and after storage [1, 10]: essentially unchanged; chemical purity before and after storage [1, 11]: essentially unchanged; time the form remains stable under light [2, 10]: 14 days; time the form remains stable under light [2, 11]: at least 14 days; chemical purity before and after storage [2, 10]: no essential change; chemical purity before and after storage [2, 11]: essentially unchanged; time the form remains stable under oxidation [2, 10]: 14 days; time the form remains stable under oxidation [2, 11]: at least 14 days; solubility compared with the crystal forms [3]: surpassing that of Tolebrutinib Form 1 and Form 2; solubility ([3]; pH 1.2 buffer solution and pH 1.2 SGF, pH 1.2, simulated gastric fluid, thermodynamic from solid, pH 1.2 buffer and pH 1.2 SGF (medium simulating the physiological pH of the human stomach), read-out: solubility, approximate level): ~20 mg/mL (≈ 43.9 mM); solubility at 2 hours ([3]; pH 1.2 buffer solution, pH 1.2, simulated gastric fluid, thermodynamic from solid, 2 hours): 29.1 mg/mL (≈ 63.8 mM); DVS weight gain ([4]; between 20% RH and 80% RH, 25° C., listed as amorphous form of tolebrutinib): about 1.9%; DVS weight gain ([4]; between 20% RH and 80% RH, 25° C., listed as sample 1-1): about 1.9%; time the solid form remains unchanged / stable in the formulation (tablets) [6, 10]: 14 days |
| C=CC(=O)N1CCC[C@@H](n2c(=O)n(-c3ccc(Oc4ccccc4)cc3)c3c(N)nccc32)C1 [Form 1, tolebrutinib] | 99.5% and 99.54% | Form 1 | 18.28 | 1.3 | 7.51 | 4.18 | 6.40 | remained unchanged | 99.77 | Form 1 | 10 | at least 14 days | basically unchanged | at least 14 days | approximately 20 mg/mL | 21.19 | ≤ 10 | time the solid form remains unchanged / stable ([1]; listed as Tolebrutinib Form 1): at least 10 months; chemical purity before and after storage ([1]; listed as Tolebrutinib Form 1): basically unchanged; also recorded: essentially unchanged; solubility, approximate level ([3]; pH 1.2 buffer and pH 1.2 SGF (medium simulating the physiological pH of the human stomach), listed as Tolebrutinib Form 1): around 20 mg/mL; DVS weight gain ([4]; between 20% RH and 80% RH, 25° C., listed as sample 2-1): about 0.46%; time the solid form remains unchanged / stable in the formulation (tablets) ([6]; listed as Tolebrutinib Form 1): at least 14 days |
| C=CC(=O)N1CCC[C@@H](n2c(=O)n(-c3ccc(Oc4ccccc4)cc3)c3c(N)nccc32)C1 [Form 2, tolebrutinib] | 98.24% | Form 2 | 32.45 | 1.7 | 7.51 | 4.18 | 8.31 | remained unchanged | 98.87 | Form 2 | 10 | at least 14 days | basically unchanged | at least 14 days | approximately 20 mg/mL | 21.44 | ≤ 10 | time the solid form remains unchanged / stable ([1]; listed as tolebrutinib Form 2): at least 10 months; chemical purity before and after storage ([1]; listed as Tolebrutinib Form 2): essentially unchanged; chemical purity before and after storage ([1]; listed as tolebrutinib Form 2): basically unchanged; DVS weight gain ([4]; between 0% RH and 80% RH, listed as Tolebrutinib Form 2): 0.3%; DVS weight gain ([4]; between 0% RH and 80% RH, listed as sample 3-1): about 0.34%; time the solid form remains unchanged / stable in the formulation (tablets) ([6]; listed as Tolebrutinib Form 2): at least 14 days; thermodynamic stability [9]: thermodynamically stable form at temperatures of 30 °C and above |
